In patent US20160281050A1, “METHODS FOR TREATING A CULTURE OF HAEMATOCOCCUS PLUVIALIS FOR CONTAMINATION USING SALT AND HYDROGEN PEROXIDE” (HELIAE DEVELOPMENT LLC, priority 2015, published 2016):

Tested on: Haematococcus pluvialis (Strain 2)
Assay: % cell lysis, culture dry weight and % carotenoid by UV method in 230 L reactors, salt treatment (Example 12)
Format: cell-based
Procedure: This test was done side by side in flasks (0.1 L) and in reactors located in a greenhouse operating in conditions: reactor volume of 230 L; Daily PAR of 20 mol m^−2 d^−1; pH (not measured); and paddlewheel speed of 21 RPM. […] The flask cultures were mixed by shaking at 140 rpm and received 300-400 μmol/m^2 s of photosynthetically active radiation (PAR) in 12 hour light cycles and constant supply of 2.5% CO2. The motility of the culture was monitored by visual observation under a microscope. […] Nine 230 L reactors were also seeded with culture from bioreactor #2410 on the same day as the flasks and brought to 2 ppt concentration of salt. Once motility of the cells was reduced to <10% (day 3 of culture for flasks and day 2 for 230 L reactors) the level of salt was elevated to a point between 4-18 ppt and compared to the culture in two reactors remaining at 2 ppt salt. Flasks and 230 L reactors were monitored for percentage of cell lysis via visual observation under a microscope, culture dry weight (biomass accumulation in g/L), and percentage of chytrid infection via visual observation under a microscope. Carotenoid production, a proxy for determining astaxanthin, was quantified every other day of culture in the 230 L reactors using the UV method.

SMILES: [Cl-].[Na+] [NaCl, sodium chloride]
- Culture Dry Weight in 230L reactors (NaCl 2 ppt (1st 2 ppt column), time 12 d): 0.187 g/L
- Culture Dry Weight in 230L reactors (NaCl 2 ppt, time 0 d): 0.043 g/L
- Culture Dry Weight in 230L reactors (NaCl 2 ppt, time 1 d): 0.048 g/L
- Culture Dry Weight in 230L reactors (NaCl 2 ppt, time 2 d): 0.072 g/L
- Culture Dry Weight in 230L reactors (NaCl 2 ppt, time 4 d): 0.113 g/L
- Culture Dry Weight in 230L reactors (NaCl 2 ppt, time 5 d): 0.125 g/L
- Culture Dry Weight in 230L reactors (NaCl 2 ppt, time 6 d): 0.130 g/L
- Culture Dry Weight in 230L reactors (NaCl 2 ppt, time 7 d): 0.150 g/L
- Culture Dry Weight in 230L reactors (NaCl 2 ppt, time 8 d): 0.170 g/L
- Culture Dry Weight in 230L reactors (NaCl 2 ppt, time 9 d): 0.218 g/L
- Culture Dry Weight in 230L reactors (NaCl 2 ppt, time 10 d): 0.150 g/L
- Culture Dry Weight in 230L reactors (NaCl 4 ppt, time 0 d): 0.037 g/L
- Culture Dry Weight in 230L reactors (NaCl 4 ppt, time 1 d): 0.063 g/L
- Culture Dry Weight in 230L reactors (NaCl 4 ppt, time 2 d): 0.080 g/L
- Culture Dry Weight in 230L reactors (NaCl 4 ppt, time 4 d): 0.115 g/L
- Culture Dry Weight in 230L reactors (NaCl 4 ppt, time 5 d): 0.120 g/L
- Culture Dry Weight in 230L reactors (NaCl 4 ppt, time 6 d): 0.125 g/L
- Culture Dry Weight in 230L reactors (NaCl 4 ppt, time 7 d): 0.148 g/L
- Culture Dry Weight in 230L reactors (NaCl 4 ppt, time 8 d): 0.153 g/L
- Culture Dry Weight in 230L reactors (NaCl 4 ppt, time 9 d): 0.198 g/L
- Culture Dry Weight in 230L reactors (NaCl 4 ppt, time 10 d): 0.143 g/L
- Culture Dry Weight in 230L reactors (NaCl 4 ppt, time 11 d): 0.148 g/L
- Culture Dry Weight in 230L reactors (NaCl 4 ppt, time 12 d): 0.150 g/L
- Culture Dry Weight in 230L reactors (NaCl 5 ppt, time 0 d): 0.040 g/L
- Culture Dry Weight in 230L reactors (NaCl 5 ppt, time 1 d): 0.070 g/L
- Culture Dry Weight in 230L reactors (NaCl 5 ppt, time 4 d): 0.162 g/L
- Culture Dry Weight in 230L reactors (NaCl 5 ppt, time 5 d): 0.185 g/L
- Culture Dry Weight in 230L reactors (NaCl 5 ppt, time 6 d): 0.213 g/L
- Culture Dry Weight in 230L reactors (NaCl 5 ppt, time 7 d): 0.223 g/L
- Culture Dry Weight in 230L reactors (NaCl 5 ppt, time 8 d): 0.270 g/L
- Culture Dry Weight in 230L reactors (NaCl 5 ppt, time 9 d): 0.293 g/L
- Culture Dry Weight in 230L reactors (NaCl 5 ppt, time 10 d): 0.265 g/L
- Culture Dry Weight in 230L reactors (NaCl 5 ppt, time 11 d): 0.250 g/L
- Culture Dry Weight in 230L reactors (NaCl 5 ppt, time 12 d): 0.280 g/L
- Culture Dry Weight in 230L reactors (NaCl 6 ppt, time 0 d): 0.040 g/L
- Culture Dry Weight in 230L reactors (NaCl 6 ppt, time 1 d): 0.058 g/L
- Culture Dry Weight in 230L reactors (NaCl 6 ppt, time 4 d): 0.140 g/L
- Culture Dry Weight in 230L reactors (NaCl 6 ppt, time 5 d): 0.178 g/L
- Culture Dry Weight in 230L reactors (NaCl 6 ppt, time 6 d): 0.198 g/L
- Culture Dry Weight in 230L reactors (NaCl 6 ppt, time 7 d): 0.218 g/L
- Culture Dry Weight in 230L reactors (NaCl 6 ppt, time 8 d): 0.260 g/L
- Culture Dry Weight in 230L reactors (NaCl 6 ppt, time 9 d): 0.260 g/L
- Culture Dry Weight in 230L reactors (NaCl 6 ppt, time 10 d): 0.250 g/L
- Culture Dry Weight in 230L reactors (NaCl 6 ppt, time 11 d): 0.282 g/L
- Culture Dry Weight in 230L reactors (NaCl 6 ppt, time 12 d): 0.323 g/L
- Culture Dry Weight in 230L reactors (NaCl 7 ppt, time 0 d): 0.035 g/L
- Culture Dry Weight in 230L reactors (NaCl 7 ppt, time 1 d): 0.048 g/L
- Culture Dry Weight in 230L reactors (NaCl 7 ppt, time 4 d): 0.145 g/L
- Culture Dry Weight in 230L reactors (NaCl 7 ppt, time 5 d): 0.150 g/L
- Culture Dry Weight in 230L reactors (NaCl 7 ppt, time 6 d): 0.170 g/L
- Culture Dry Weight in 230L reactors (NaCl 7 ppt, time 7 d): 0.198 g/L
- Culture Dry Weight in 230L reactors (NaCl 7 ppt, time 8 d): 0.260 g/L
- Culture Dry Weight in 230L reactors (NaCl 7 ppt, time 9 d): 0.148 g/L
- Culture Dry Weight in 230L reactors (NaCl 7 ppt, time 10 d): 0.205 g/L
- Culture Dry Weight in 230L reactors (NaCl 7 ppt, time 11 d): 0.218 g/L
- Culture Dry Weight in 230L reactors (NaCl 7 ppt, time 12 d): 0.245 g/L
- Culture Dry Weight in 230L reactors (NaCl 8 ppt, time 0 d): 0.018 g/L
- Culture Dry Weight in 230L reactors (NaCl 8 ppt, time 1 d): 0.057 g/L
- Culture Dry Weight in 230L reactors (NaCl 8 ppt, time 4 d): 0.145 g/L
- Culture Dry Weight in 230L reactors (NaCl 8 ppt, time 5 d): 0.168 g/L
- Culture Dry Weight in 230L reactors (NaCl 8 ppt, time 6 d): 0.193 g/L
- Culture Dry Weight in 230L reactors (NaCl 8 ppt, time 7 d): 0.205 g/L
- Culture Dry Weight in 230L reactors (NaCl 8 ppt, time 8 d): 0.237 g/L
- Culture Dry Weight in 230L reactors (NaCl 8 ppt, time 9 d): 0.218 g/L
- Culture Dry Weight in 230L reactors (NaCl 8 ppt, time 10 d): 0.257 g/L
- Culture Dry Weight in 230L reactors (NaCl 8 ppt, time 11 d): 0.220 g/L
- Culture Dry Weight in 230L reactors (NaCl 8 ppt, time 12 d): 0.263 g/L
- Culture Dry Weight in 230L reactors (NaCl 10 ppt, time 0 d): 0.045 g/L
- Culture Dry Weight in 230L reactors (NaCl 10 ppt, time 1 d): 0.060 g/L
- Culture Dry Weight in 230L reactors (NaCl 10 ppt, time 4 d): 0.120 g/L
- Culture Dry Weight in 230L reactors (NaCl 10 ppt, time 5 d): 0.130 g/L
- Culture Dry Weight in 230L reactors (NaCl 10 ppt, time 6 d): 0.168 g/L
- Culture Dry Weight in 230L reactors (NaCl 10 ppt, time 7 d): 0.145 g/L
- Culture Dry Weight in 230L reactors (NaCl 10 ppt, time 8 d): 0.145 g/L
- Culture Dry Weight in 230L reactors (NaCl 10 ppt, time 9 d): 0.160 g/L
- Culture Dry Weight in 230L reactors (NaCl 10 ppt, time 10 d): 0.173 g/L
- Culture Dry Weight in 230L reactors (NaCl 10 ppt, time 11 d): 0.145 g/L
- Culture Dry Weight in 230L reactors (NaCl 10 ppt, time 12 d): 0.168 g/L
- Culture Dry Weight in 230L reactors (NaCl 18 ppt, time 0 d): 0.035 g/L
- Culture Dry Weight in 230L reactors (NaCl 18 ppt, time 1 d): 0.052 g/L
- Culture Dry Weight in 230L reactors (NaCl 18 ppt, time 4 d): 0.135 g/L
- Culture Dry Weight in 230L reactors (NaCl 18 ppt, time 5 d): 0.173 g/L
- Culture Dry Weight in 230L reactors (NaCl 18 ppt, time 6 d): 0.180 g/L
- Culture Dry Weight in 230L reactors (NaCl 18 ppt, time 7 d): 0.165 g/L
- Culture Dry Weight in 230L reactors (NaCl 18 ppt, time 8 d): 0.165 g/L
- Culture Dry Weight in 230L reactors (NaCl 18 ppt, time 9 d): 0.175 g/L
- Culture Dry Weight in 230L reactors (NaCl 18 ppt, time 10 d): 0.183 g/L
- Culture Dry Weight in 230L reactors (NaCl 18 ppt, time 11 d): 0.200 g/L
- Culture Dry Weight in 230L reactors (NaCl 18 ppt, time 12 d): 0.175 g/L
